Where a name gives a salt, the structure may show the parent alone. Read-outs that look alike come from different tables or passages of the source.
Key:
[1] = target: T1, SARS-CoV-2 PLpro (nsp3 1564–1878) (Severe acute respiratory syndrome coronavirus 2, UniProt P0DTD1); experiment: biochemical; design: FRET-quenched peptide (Pro3) cleavage by PLpro, 10 min pre-incubation, slope over 20 min, normalised to no-compound control; conditions: high concentration screen, read-out: % of control remaining
[2] = target: T1, SARS-CoV-2 PLpro (nsp3 1564–1878); experiment: biochemical; design: FRET-quenched peptide (Pro3) cleavage by PLpro, 10 min pre-incubation, slope over 20 min, normalised to no-compound control; conditions: low concentration screen, read-out: % of control remaining

What does the source list for `COc1ccc(C2CNC(=O)C2)cc1OC1CCCC1` (stereo not drawn) [Rolipram]?
remaining activity at 3.75 µM ([1]; Well no.=1302): 103%; remaining activity at 3.75 µM ([1]; Well no.=2152): 102%; remaining activity at 1.25 µM ([2]; Well no.=1302): 102%; remaining activity at 1.25 µM ([2]; Well no.=2152): 101%

For `O=c1ccn([C@@H]2O[C@H](COP(=O)(O)OP(=O)(O)OP(=O)(O)OP(=O)(O)OC[C@H]3O[C@@H](n4ccc(=O)[nH]c4=O)[C@H](O)[C@@H]3O)[C@@H](O)[C@H]2O)c(=O)[nH]1` [Diquafosol (tetrasodium)], which remaining activity at 3.75 µM ([1]; Well no.=8095) is on record?
The remaining activity at 3.75 µM was 100%.

What about the remaining activity at 3.75 µM ([1]; Well no.=8837) of the same compound?
The remaining activity at 3.75 µM was 87.9%.

What about the remaining activity at 1.25 µM ([2]; Well no.=8837) of the same compound?
Its remaining activity at 1.25 µM is 101%.

Which remaining activity at 3.75 µM ([1]; Well no.=8348) does the source give for `CCCCC(CC)COC(=O)CC(C(=O)OCC(CC)CCCC)S(=O)(=O)O` (stereo not drawn) [Docusate Sodium] here?
Its remaining activity at 3.75 µM is 92.6%.

And the remaining activity at 1.25 µM ([2]; Well no.=8348)?
Its remaining activity at 1.25 µM is 94.3%.

How did the remaining activity at 3.75 µM ([1]; Well no.=316) turn out when `CC(=O)O[C@]1(C(C)=O)CC[C@H]2[C@@H]3C=C(Cl)C4=CC(=O)[C@@H]5C[C@@H]5[C@]4(C)[C@H]3CC[C@@]21C` [Cyproterone acetate] was run?
Its remaining activity at 3.75 µM is 95.7%.

What about the remaining activity at 3.75 µM ([1]; Well no.=1934) of the same compound?
The remaining activity at 3.75 µM was 99.8%.

What about the remaining activity at 1.25 µM ([2]; Well no.=316) of the same compound?
The remaining activity at 1.25 µM was 95.3%.

And the remaining activity at 1.25 µM ([2]; Well no.=1934)?
Its remaining activity at 1.25 µM is 99.5%.

For `O=C(/C=C/c1cccnc1)NCCCCC1CCN(C(=O)c2ccccc2)CC1` [(2E)-N-[4-(1-benzoyl-4-piperidinyl)butyl]-3-(3-pyridinyl)-2-propenamide hydrochloride hydrate], which remaining activity at 3.75 µM ([1]; Well no.=5694) is on record?
The remaining activity at 3.75 µM was 92.8%.

And the remaining activity at 1.25 µM ([2]; Well no.=5694)?
Its remaining activity at 1.25 µM is 97.8%.

How did the remaining activity at 3.75 µM ([1]; Well no.=4673) turn out when `O=C(Nc1ccccc1-c1cn2c(CN3CCNCC3)csc2n1)c1cnc2ccccc2n1` [SRT1720] was run?
The remaining activity at 3.75 µM was 98.8%.

And the remaining activity at 1.25 µM ([2]; Well no.=4673)?
The remaining activity at 1.25 µM was 100%.

How did the remaining activity at 3.75 µM ([1]; Well no.=1507) turn out when `N[C@@H](Cn1oc(=O)[nH]c1=O)C(=O)O` [(+)-Quisqualic acid] was run?
The remaining activity at 3.75 µM was 97.1%.

And the remaining activity at 1.25 µM ([2]; Well no.=1507)?
Its remaining activity at 1.25 µM is 96.2%.

Which results are given for `CC(C)=CCC[C@](C)(O)[C@H]1CC[C@]2(C)[C@@H]1[C@H](O)C[C@@H]1[C@@]3(C)CC[C@H](O)C(C)(C)[C@@H]3[C@@H](O[C@@H]3O[C@H](CO)[C@@H](O)[C@H](O)[C@H]3O)C[C@]12C` [Ginsenoside Rh1]?
remaining activity at 3.75 µM ([1]; Well no.=6546): 93.7%; remaining activity at 1.25 µM ([2]; Well no.=6546): 98.2%

Which results are given for `CC(C)(C)c1ccc(S(=O)(=O)Nc2ccc(Cl)cc2C(=O)c2cc[n+]([O-])cc2)cc1` [Vercirnon]?
remaining activity at 3.75 µM ([1]; Well no.=8645): 103%; remaining activity at 1.25 µM ([2]; Well no.=8645): 103%

For `NS(=O)(=O)c1cc2c(cc1Cl)NCNS2(=O)=O` [Hydrochlorothiazide], which remaining activity at 3.75 µM ([1]; Well no.=658) is on record?
Its remaining activity at 3.75 µM is 98.6%.

What about the remaining activity at 1.25 µM ([2]; Well no.=658) of the same compound?
Its remaining activity at 1.25 µM is 100%.

For `COc1ccc2c3c1O[C@H]1C[C@@H](O)C=C[C@@]31CCN(C)C2` [Galanthamine], which remaining activity at 3.75 µM ([1]; Well no.=1707) is on record?
The remaining activity at 3.75 µM was 101%.

What about the remaining activity at 1.25 µM ([2]; Well no.=1707) of the same compound?
The remaining activity at 1.25 µM was 105%.

How did the remaining activity at 3.75 µM ([1]; Well no.=2350) turn out when `C[C@@H](N)[C@H]1CC[C@H](C(=O)Nc2ccncc2)CC1` [Y-27632 dihydrochloride - trans-4-[(1R)-1-Aminoethyl]-N-4-pyridinylcyclohexanecarboxamide dihydrochloride] was run?
Its remaining activity at 3.75 µM is 104%.

And the remaining activity at 1.25 µM ([2]; Well no.=2350)?
The remaining activity at 1.25 µM was 105%.

What does the source list for `CC1=CC(=O)C(C(C)C)=CC1=O` [Thymoquinone]?
remaining activity at 3.75 µM ([1]; Well no.=3567): 102%; remaining activity at 3.75 µM ([1]; Well no.=4095): 101%; remaining activity at 1.25 µM ([2]; Well no.=3567): 101%; remaining activity at 1.25 µM ([2]; Well no.=4095): 102%

How did the remaining activity at 3.75 µM ([1]; Well no.=6733) turn out when `CC(CCC(=O)O)C(=O)O` (stereo not drawn) [2-Methylpentanedioic acid] was run?
Its remaining activity at 3.75 µM is 105%.

What about the remaining activity at 1.25 µM ([2]; Well no.=6733) of the same compound?
Its remaining activity at 1.25 µM is 99.7%.

Which remaining activity at 3.75 µM ([1]; Well no.=232) does the source give for `COc1cccc(C(=O)NCCN2CCN(c3ccc(Cl)cc3)CC2)c1` [N-(2-[4-(4-Chlorophenyl)piperazin-1-yl]ethyl)-3-methoxybenzamide] here?
Its remaining activity at 3.75 µM is 99.4%.

And the remaining activity at 1.25 µM ([2]; Well no.=232)?
Its remaining activity at 1.25 µM is 99.5%.

`CC(=O)[C@H]1CC[C@H]2[C@@H]3CCC4=CC(=O)CC[C@]4(C)[C@H]3CC[C@]12C` [Progesterone] was tested. Which remaining activity at 3.75 µM ([1]; Well no.=852) did it give?
The remaining activity at 3.75 µM was 107%.

What about the remaining activity at 3.75 µM ([1]; Well no.=2143) of the same compound?
The remaining activity at 3.75 µM was 101%.

What about the remaining activity at 3.75 µM ([1]; Well no.=7071) of the same compound?
The remaining activity at 3.75 µM was 104%.

What about the remaining activity at 1.25 µM ([2]; Well no.=852) of the same compound?
Its remaining activity at 1.25 µM is 106%.

What about the remaining activity at 1.25 µM ([2]; Well no.=2143) of the same compound?
Its remaining activity at 1.25 µM is 95.2%.

And the remaining activity at 1.25 µM ([2]; Well no.=7071)?
The remaining activity at 1.25 µM was 105%.

For `CCc1ccc(O)cc1` [4-Ethylphenol], which remaining activity at 3.75 µM ([1]; Well no.=6679) is on record?
The remaining activity at 3.75 µM was 104%.

What about the remaining activity at 1.25 µM ([2]; Well no.=6679) of the same compound?
The remaining activity at 1.25 µM was 103%.

How did the remaining activity at 3.75 µM ([1]; Well no.=1882) turn out when `CCCCc1ncc(/C=C(\Cc2cccs2)C(=O)O)n1Cc1ccc(C(=O)O)cc1` [Eprosartan mesylate] was run?
The remaining activity at 3.75 µM was 99.1%.

And the remaining activity at 1.25 µM ([2]; Well no.=1882)?
The remaining activity at 1.25 µM was 98.4%.

With `CN(C)Cc1ccc(-c2nc3cccc4c3n2CCNC4=O)cc1` [AG14361] as the compound, how does the remaining activity at 3.75 µM ([1]; Well no.=5272) read?
Its remaining activity at 3.75 µM is 97.3%.

What about the remaining activity at 1.25 µM ([2]; Well no.=5272) of the same compound?
Its remaining activity at 1.25 µM is 98.1%.

What does the source list for `COc1ccc2cc(-c3nc(-c4ccc([S+](C)[O-])cc4)[nH]c3-c3ccncc3)ccc2c1` (stereo not drawn) [Tie2 kinase inhibitor]?
remaining activity at 3.75 µM ([1]; Well no.=4965): 90.7%; remaining activity at 1.25 µM ([2]; Well no.=4965): 91%

With `CC(=O)Oc1cc(C(F)(F)F)ccc1C(=O)O` [Triflusal] as the compound, how does the remaining activity at 3.75 µM ([1]; Well no.=4942) read?
The remaining activity at 3.75 µM was 96.4%.

And the remaining activity at 1.25 µM ([2]; Well no.=4942)?
Its remaining activity at 1.25 µM is 98.7%.

Which remaining activity at 3.75 µM ([1]; Well no.=4639) does the source give for `O=C(O)CC[C@H]1CC[C@@](c2cc(F)ccc2F)(S(=O)(=O)c2ccc(Cl)cc2)CC1` [MK-0752] here?
The remaining activity at 3.75 µM was 99.5%.

What about the remaining activity at 1.25 µM ([2]; Well no.=4639) of the same compound?
Its remaining activity at 1.25 µM is 97.6%.

`CNC1CCCN(c2c(F)cc3c(=O)c(C(=O)O)cn(C4CC4)c3c2OC)C1` (stereo not drawn) [Balofloxacin] was tested. Which remaining activity at 3.75 µM ([1]; Well no.=5058) did it give?
Its remaining activity at 3.75 µM is 97.3%.

What about the remaining activity at 1.25 µM ([2]; Well no.=5058) of the same compound?
The remaining activity at 1.25 µM was 95.8%.

Which results are given for `CC(C)C(=O)c1c(C(C)C)nn2ccccc12` [Ibudilast]?
remaining activity at 3.75 µM ([1]; Well no.=572): 96.9%; remaining activity at 3.75 µM ([1]; Well no.=1581): 90%; remaining activity at 1.25 µM ([2]; Well no.=572): 98.8%; remaining activity at 1.25 µM ([2]; Well no.=1581): 89.2%

Which remaining activity at 3.75 µM ([1]; Well no.=3467) does the source give for `C[C@@H]1CC[C@@]2(NC1)O[C@H]1C[C@H]3[C@@H]4CC=C5C[C@@H](O)CC[C@]5(C)[C@H]4CC[C@]3(C)[C@H]1[C@@H]2C` [Solasodine] here?
Its remaining activity at 3.75 µM is 95.3%.

What about the remaining activity at 1.25 µM ([2]; Well no.=3467) of the same compound?
The remaining activity at 1.25 µM was 97.1%.

With `Nc1nc2c(ncn2COCCO)c(=O)[nH]1` [Acyclovir] as the compound, how does the remaining activity at 3.75 µM ([1]; Well no.=159) read?
The remaining activity at 3.75 µM was 103%.

And the remaining activity at 3.75 µM ([1]; Well no.=8000)?
The remaining activity at 3.75 µM was 89.5%.

What about the remaining activity at 1.25 µM ([2]; Well no.=159) of the same compound?
The remaining activity at 1.25 µM was 104%.

And the remaining activity at 1.25 µM ([2]; Well no.=8000)?
The remaining activity at 1.25 µM was 92.6%.

`C[N+]1(C)CCN(c2ccccc2)CC1` [1,1-Dimethyl-4-phenyl-piperazinium iodide] was tested. Which remaining activity at 3.75 µM ([1]; Well no.=741) did it give?
Its remaining activity at 3.75 µM is 92.3%.

And the remaining activity at 1.25 µM ([2]; Well no.=741)?
Its remaining activity at 1.25 µM is 92%.

For `CC(C)(Oc1ccc(Cl)cc1)C(=O)O` [Clofibric Acid], which remaining activity at 3.75 µM ([1]; Well no.=8394) is on record?
Its remaining activity at 3.75 µM is 81.1%.

What about the remaining activity at 1.25 µM ([2]; Well no.=8394) of the same compound?
The remaining activity at 1.25 µM was 87%.

With `CN1CCC2=C(C1)c1ccccc1Cc1ccccc12` [Setiptiline (maleate)] as the compound, how does the remaining activity at 3.75 µM ([1]; Well no.=6907) read?
Its remaining activity at 3.75 µM is 101%.

And the remaining activity at 1.25 µM ([2]; Well no.=6907)?
Its remaining activity at 1.25 µM is 101%.

With `CCCc1nc(C(C)(C)O)c(C(=O)OCc2oc(=O)oc2C)n1Cc1ccc(-c2ccccc2-c2nnn[nH]2)cc1` [Olmesartan (medoxomil)] as the compound, how does the remaining activity at 3.75 µM ([1]; Well no.=7579) read?
Its remaining activity at 3.75 µM is 92.2%.

What about the remaining activity at 1.25 µM ([2]; Well no.=7579) of the same compound?
Its remaining activity at 1.25 µM is 98.2%.

Reference: PMC8286840, “Identifying SARS-CoV-2 antiviral compounds by screening for small molecule inhibitors of Nsp3 papain-like protease” (Biochemical Journal, 2021)
